Measured values from US20030148483A1, “Method of removing residual enzymes in enzyme microencapsulation” (priority 2002, published 2003).

Assays:
[1] = tested on: Staphylococcus aureus; assay: Effect of ozone treatment on growth of microorganisms (colony count); format: cell-based; conditions: ozone 10 ppm, 2° C.; for viability: 0 min = 100
Description: (§1) Microorganisms were treated with ozone of 10 ppm, at which concentration much of untrapped lactase loses its activity, while microencapsulated lactase retains effective activity, and effect of ozone on the growth of microorganisms was investigated.
(§2) Pathogenic microorganisms found especially in food, including Escherichia coli, Bacillus subtilis, Staphylococcus aureus, Salmonella typhimurium, Pseudomonas aeruginosa, and Enterobacter aerogenes, were obtained from Korean Culture Center of Microorganisms (Seoul, Korea) and stored in broth containing 50% glycerol at −70° C. until use. The five strains, except S. aureus, were cultured in nutrient broth (NB), and S. aureus was cultured in tryptic soy broth (TSB) for 24 hours at 37° C.
(§3) Trace amounts of the cultured microorganisms were mixed with the dispersion fluid of microcapsules, followed by treatment of ozone of 10 ppm at 2° C. under a flow rate of 10 L/min using an ozone generator.
(§4) After being serially diluted, the ozone-treated microorganisms were plated onto nutrient agar broth.

[2] = tested on: Enterobacter aerogenes; assay: as above; format: cell-based; conditions: ozone 10 ppm, 2° C.; for viability: 0 min = 100
Description: as §1, §2, §3, §4

[3] = tested on: Escherichia coli; assay: as above; format: cell-based; conditions: ozone 10 ppm, 2° C.; for viability: 0 min = 100
Description: as §1, §2, §3, §4

[4] = tested on: Salmonella typhimurium; assay: as above; format: cell-based; conditions: ozone 10 ppm, 2° C.; for viability: 0 min = 100
Description: as §1, §2, §3, §4

[5] = tested on: Bacillus subtilis; assay: as above; format: cell-based; conditions: ozone 10 ppm, 2° C.; for viability: 0 min = 100
Description: as §1, §2, §3, §4

[6] = tested on: Pseudomonas aeruginosa; assay: as above; format: cell-based; conditions: ozone 10 ppm, 2° C.; for viability: 0 min = 100
Description: as §1, §2, §3, §4

[7] = tested on: uncapsulated lactase; assay: Assay for the activity of uncapsulated lactase after ozone treatment (ONPG, absorbance at 420 nm); format: biochemical; conditions: initial activity 100%
Description: After centrifuging the dispersion fluid of microcapsules prepared by ozone treatment in Examples 2 to 4 at 24,900×g for 10 min, the resulting supernatants were assayed for activity of uncapsulated lactase.
A portion of each of the supernatants was primarily filtered using Whatman No. 540 (Whatman International Ltd., Maidstone, England), and then further filtered using an 1 μm membrane filter (Whatman International Ltd., Maidstone, England).
Thereafter, 0.5 ml of the filtered supernatant was mixed with 2 ml of a solution of 0.05 M ONPG (Ortho-nitrophenol-β-D-galactopyranoside, Sigma Chemical Co., St. Louis, Mo. USA) preheated at 37° C. for 15 min, followed by incubation for 20 min at 37° C. After 20 min, the reaction was terminated with adding 0.5 ml of a 0.5 M Na2CO3 solution (Shinoyo Pure Chemical Co., Ltd., Osaka, Japan) thereto.
Absorbance at 420 nm was measured using a spectrophotometer (Beckman Du 650 spectrophotometer; Beckman Instrument, Inc, Fullerton, Calif., USA), and the results are given in FIG. 2.

[8] = tested on: microencapsulated lactase; assay: Effect of ozone treatment on the activity of microencapsulated lactase (heating method, ONPG); format: biochemical; conditions: initial activity 100%
Description: With an aim to investigate effect of ozone treatment on microencapsulated lactase, microcapsules containing lactase were collected from the ozone-treated dispersion fluid prepared in Examples 2 to 4 by centrifugation, and the activity of microencapsulated lactase was measured using a heating method among yield analysis methods disclosed in Korean Pat. No. 88465.
0.5 ml of the resulting dispersion fluid containing microcapsules was mixed with 2 ml of 0.05 M ONPG pre-heated at 50° C. for 10 min. After 5 min, the reaction was terminated with adding 0.5 ml of 0.5M Na2CO3 thereto, and absorbance at 420 nm was measured using a spectrophotometer (Beckman Du 650 spectrophotometer, Beckman Instrument, Inc., Fullerton, Calif., USA). The results are given in FIG. 3, where the initial activity of lactase is 100%.
Yield of microcapsule=1−Activity of uncapsulated lactase/ Initial activity of lactase×100

O=[O+][O-] [ozone]
colonies counted ([1]; treatment time 0.5 min): 1.0 × 10^8 CFU/ml
viability ([1]; treatment time 0.5 min): (15) %
colonies counted ([1]; treatment time 1 min): 6.4 × 10^7 CFU/ml
viability ([1]; treatment time 1 min): (9.4) %
colonies counted ([1]; treatment time 5 min): 1.2 × 10^7 CFU/ml
viability ([1]; treatment time 5 min): (1.8) %
colonies counted ([1]; treatment time 10 min): 1.1 × 10^5 CFU/ml
viability ([1]; treatment time 10 min): (0.01) %
colonies counted ([2]; treatment time 0.5 min): 5.4 × 10^6 CFU/ml
viability ([2]; treatment time 0.5 min): 38%
colonies counted ([2]; treatment time 1 min): 1.0 × 10^6 CFU/ml
viability ([2]; treatment time 1 min): (7.1) %
colonies counted ([2]; treatment time 5 min): 2.4 × 10^5 CFU/ml
viability ([2]; treatment time 5 min): (1.7) %
colonies counted ([2]; treatment time 10 min): 0 CFU/ml
viability ([2]; treatment time 10 min): (0) %
colonies counted ([3]; treatment time 0.5 min): 8.9 × 10^7 CFU/ml
viability ([3]; treatment time 0.5 min): 3.7%
colonies counted ([3]; treatment time 1 min): 3.1 × 10^7 CFU/ml
viability ([3]; treatment time 1 min): (1.3) %
colonies counted ([3]; treatment time 5 min): 9.0 × 10^6 CFU/ml
viability ([3]; treatment time 5 min): (0.3) %
colonies counted ([3]; treatment time 10 min): 0 CFU/ml
viability ([3]; treatment time 10 min): (0) %
colonies counted ([4]; treatment time 0.5 min): 8.4 × 10^8 CFU/ml
viability ([4]; treatment time 0.5 min): 34%
colonies counted ([4]; treatment time 1 min): 1.1 × 10^7 CFU/ml
viability ([4]; treatment time 1 min): 0.4%
colonies counted ([4]; treatment time 5 min): 1.5 × 10^6 CFU/ml
viability ([4]; treatment time 5 min): (0.06) %
colonies counted ([4]; treatment time 10 min): 0 CFU/ml
viability ([4]; treatment time 10 min): (0) %
colonies counted ([5]; treatment time 0.5 min): 9.6 × 10^7 CFU/ml
viability ([5]; treatment time 0.5 min): 60%
colonies counted ([5]; treatment time 1 min): 2.2 × 10^7 CFU/ml
viability ([5]; treatment time 1 min): (14) %
colonies counted ([5]; treatment time 5 min): 6.0 × 10^6 CFU/ml
viability ([5]; treatment time 5 min): (3.7) %
colonies counted ([5]; treatment time 10 min): 0 CFU/ml
viability ([5]; treatment time 10 min): (0) %
colonies counted ([6]; treatment time 0.5 min): 1.2 × 10^8 CFU/ml
viability ([6]; treatment time 0.5 min): (35) %
colonies counted ([6]; treatment time 1 min): 7.5 × 10^7 CFU/ml
viability ([6]; treatment time 1 min): 22%
colonies counted ([6]; treatment time 5 min): 3.6 × 10^6 CFU/ml
viability ([6]; treatment time 5 min): 1%
colonies counted ([6]; treatment time 10 min): 0 CFU/ml
viability ([6]; treatment time 10 min): (0) %
activity of lactase (uncapsulated) ([7]; 1 ppm of ozone, 1 min): about 94.3%
activity of lactase (uncapsulated) ([7]; 1 ppm of ozone, 5 min): 56.4%
activity of lactase (uncapsulated) ([7]; 1 ppm of ozone, 10 min): 26.5%
activity of lactase (uncapsulated) ([7]; 5 ppm of ozone, 1 min): 82%
activity of lactase (uncapsulated) ([7]; 5 ppm of ozone, 5 min): 42.8%
activity of lactase (uncapsulated) ([7]; 5 ppm of ozone, 10 min): 20%
activity of lactase (uncapsulated) ([7]; 10 ppm of ozone, 1 min): 57.8%
activity of lactase (uncapsulated) ([7]; 10 ppm of ozone, 5 min): 32.8%
activity of lactase (uncapsulated) ([7]; 10 ppm of ozone, 10 min): 9.7%
activity of lactase entrapped into microcapsules ([8]; 1 ppm of ozone, 1 min): about 97%
activity of lactase entrapped into microcapsules ([8]; 1 ppm of ozone, 5 min): 91%
activity of lactase entrapped into microcapsules ([8]; 1 ppm of ozone, 10 min): 74%
activity of lactase entrapped into microcapsules ([8]; 5 ppm of ozone, 1 min): 96%
activity of lactase entrapped into microcapsules ([8]; 5 ppm of ozone, 5 min): 82%
activity of lactase entrapped into microcapsules ([8]; 5 ppm of ozone, 10 min): 67%
activity of lactase entrapped into microcapsules ([8]; 10 ppm of ozone, 1 min): 93%
activity of lactase entrapped into microcapsules ([8]; 10 ppm of ozone, 5 min): 79%
activity of lactase entrapped into microcapsules ([8]; 10 ppm of ozone, 10 min): 65%
